Measurements taken from patent US6339149B1, “Isolated nucleic acid molecules which encode tumor rejection antigens found in dage” (Ludwig Institute for Cancer Research, priority 1994, dated 2002).

Test system: C1R-A24 cells
Experiment: 51Cr release assay: peptide sensitization of C1R-A24 cells to lysis by anti LB33-E CTLs
Type: cell-based, human
Conditions: 51Cr labeled C1R-A24 cells incubated 30 minutes with peptide, E/T ratio 10:1, chromium release after 4 hours
Procedure: The lysis assay employed was a chromium release assay following Herin et al., Int. J. Cancer 39:390-396 (1987), the disclosure of which is incorporated by reference. The assay, however, is described herein. The target melanoma cells were grown in vitro. Prior to labelling, these cells were incubated for 48 hours, in the presence of 50 U/ml of IFN-γ to increase the expression of HLA Class I molecules. The cells were then resuspended at 10^7 cells/ml in DMEM, supplemented with 10 mM HEPES and 30% FCS (i.e. fetal calf serum), and incubated for 45 minutes at 37° C. with 200 μCi/ml of Na(^51Cr)O4. Labelled cells were washed three times with DMEM, supplemented with 10 mM Hepes. These were then resuspended in DMEM supplemented with 10 mM Hepes and 10% FCS, after which 100 ul aliquots containing 10^3 cells, were distributed into 96 well microplates. PBL containing samples were added in 100 ul of the same medium, and assays were carried out in duplicate. Plates were centrifuged for 4 minutes at 100 g, and incubated for four hours at 37° C. in a 5.5% CO2 atmosphere.
Plates were centrifuged again, and 100 ul aliquots of supernatant were collected and counted. Percentage of ^51Cr release was calculated as follows: [formula]
where ER is observed, experimental ^51Cr release, SR is spontaneous release measured by incubating 10^3 labeled cells in 200 ul of medium alone, and MR is maximum release, obtained by adding 100 ul 0.3% Triton X-100® to target cells.
Four sequences in this region which (i) were 9 or 10 amino acids long, (ii) had Tyr or Phe at position 2, and (iii) had one of Phe, Leu, Ile, or Trp at C-terminus were possible. This is the motif for HLA-A24 binding described by Kubo, et al, J. Immunol 152:3913 (1994); Meier, et al, Immunogenetics 40:306-308 (1994). These were synthesized, and incubated with cells of MHC class I negative B-cell lympoblastoid line C1R, which had been transfected with the HLA-A24 cDNA clone described supra. One peptide:
Comparative experiments were carried out, wherein peptides containing one additional N- or C-terminal amino acid, and where the C-terminal Leu was deleted, were used. […] Peptides used extended SEQ ID NO:5 at the N-terminues with Ala (SEQ ID NO:6), and by deleting the C-terminal Leu (SEQ ID NO:7). […] In these experiments, ^51Cr labeled C1R-A24 cells were incubated for 30 minutes in the presence of indicated peptide concentrations CTLs were added at E/T ratios of 10:1, and chromium release was measured after 4 hours.

Substance	EC50 (read-out: half maximal effect in sensitizing transfected C1R-A24 cells to lysis by anti LB33-E CTLs) [nM]	sensitization of C1R-A24 cells to lysis, compared with SEQ ID NO:5
LYVDSLFFL [SEQ ID NO. 5, Leu Tyr Val Asp Ser Leu Phe Phe Leu]	500	
SEQ ID NO:6: Peptide that extends SEQ ID NO:5 at the N-terminus with Ala (ALYVDSLFFL)		sensitized the cells to lysis, although to a lesser degree than SEQ ID NO:5
SEQ ID NO:7: Peptide of SEQ ID NO:5 with the C-terminal Leu deleted (LYVDSLFF)		much less sensitive in sensitizing the cells
SEQ ID NO:8: Peptide of SEQ ID NO:5 with Arg added to the C terminus (LYVDSLFFLR)		much less sensitive in sensitizing the cells
